Test results as given in patent US11999727B2 (Tango Therapeutics, Inc., priority 2020, dated 2024).
Read-outs that look alike come from different tables or passages of the source.

How the values were obtained:
[1] = target: T1, PRMT5 (Homo sapiens, UniProt O14744); assay: PRMT5 biochemical IC50 assay with SAM as cofactor; settings: PRMT5, SAM as cofactor; read-out: SAM IC50
T1 construct: purchased Viva (custom protein)

[2] = target: T1, PRMT5; assay: PRMT5 biochemical IC50 assay with MTA as cofactor; settings: PRMT5, MTA as cofactor; read-out: MTA IC50
[3] = test system: HAP1 MTAP-intact cell line; assay: SDMA in-cell western assay, HAP1 MTAP-intact; format: cell-based; settings: Homo sapiens
Text: (§1) Table 1 also indicates IC50 values in an MTAP-isogenic cell line pair for exemplary compounds in an SDMA in-cell western assay (columns 7-8). HAP1 MTAP-intact is a cell line in which endogenous levels of MTAP are expressed, and HAP1 MTAP-deleted is an MTAP-null cell line.

[4] = test system: HAP1 MTAP-deleted cell line; assay: SDMA in-cell western assay, HAP1 MTAP-deleted; format: cell-based; settings: for IC50: Homo sapiens; for MTAP intact/deleted ratio: SDMA in-cell western
Text: as §1

[5] = test system: HAP1 MTAP-deleted cell line; assay: Viability assay, MTAP-deleted cell line; format: cell-based; settings: Homo sapiens
Text: Table 1 additionally indicates IC50 values in a viability assay for the MTAP-deleted cell line (column 10), indicating the effect of treatment with compound on cell survival.

[6] = HAP1, SDMA in-cell western, HAP1 MTAP-intact, read-out: MTAP HAP1 intact IC50
[7] = HAP1, read-out: MTAP HAP1 intact IC50
[8] = HAP1, read-out: HAP1 MTAP deleted IC50
[9] = HAP1, read-out: HAP1 MTAP deleted viability
[10] = HAP1, SDMA in-cell western, HAP1 MTAP-deleted, read-out: HAP1 MTAP deleted IC50

T1 sequence (O14744 whole entry): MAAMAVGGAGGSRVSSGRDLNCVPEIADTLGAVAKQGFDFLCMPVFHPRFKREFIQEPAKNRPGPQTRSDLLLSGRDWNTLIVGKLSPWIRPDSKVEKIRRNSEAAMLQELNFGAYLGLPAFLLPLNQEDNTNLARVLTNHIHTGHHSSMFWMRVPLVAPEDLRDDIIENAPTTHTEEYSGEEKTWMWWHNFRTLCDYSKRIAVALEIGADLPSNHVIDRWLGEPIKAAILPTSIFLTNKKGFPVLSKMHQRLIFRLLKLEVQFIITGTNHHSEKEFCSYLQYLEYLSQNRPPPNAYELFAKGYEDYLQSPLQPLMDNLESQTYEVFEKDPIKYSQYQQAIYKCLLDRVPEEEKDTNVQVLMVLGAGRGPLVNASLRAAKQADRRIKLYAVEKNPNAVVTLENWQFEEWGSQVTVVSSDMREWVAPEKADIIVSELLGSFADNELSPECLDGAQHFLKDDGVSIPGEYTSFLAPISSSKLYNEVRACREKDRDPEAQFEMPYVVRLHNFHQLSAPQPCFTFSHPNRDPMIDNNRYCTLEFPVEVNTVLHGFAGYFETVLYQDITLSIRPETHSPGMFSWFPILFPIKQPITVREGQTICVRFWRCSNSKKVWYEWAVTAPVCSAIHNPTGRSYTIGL
T1 sequence (Q9BQA1 whole entry partner): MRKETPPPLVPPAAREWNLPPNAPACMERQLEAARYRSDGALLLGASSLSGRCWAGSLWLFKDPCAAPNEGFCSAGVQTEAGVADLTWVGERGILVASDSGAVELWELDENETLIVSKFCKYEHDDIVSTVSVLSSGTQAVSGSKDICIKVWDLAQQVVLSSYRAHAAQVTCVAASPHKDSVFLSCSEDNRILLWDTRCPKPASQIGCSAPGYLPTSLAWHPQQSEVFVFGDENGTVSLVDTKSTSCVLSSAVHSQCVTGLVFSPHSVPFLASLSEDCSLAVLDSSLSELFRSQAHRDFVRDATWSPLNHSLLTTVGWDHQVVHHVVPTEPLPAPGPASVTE

SMILES | IC50 [3, 7] [nM] | IC50 [4, 8] [nM] | IC50 [5, 9] [nM] | also measured
CCc1cc(NC(=O)C(=O)N2C[C@@H](C)CC[C@@H]2c2ccc(N3CCN(C)CC3)c(Cl)c2)cnc1N (racemic) [Compound 1265, N-(6-Amino-5-ethyl-3-pyridyl)-2-oxo-2-[rac-(2R,5S)-2-[3-chloro-4-(4-methylpiperazin-1-yl)phenyl]-5-methyl-1-piperidyl]acetamide] | – | – | – | IC50 [1]: 50 to 500 nM; IC50 [2]: 50 to 500 nM; IC50 [3, 6]: 100 to 1000 nM; IC50 ([4]; HAP1, SDMA in-cell western, HAP1 MTAP-deleted, read-out: HAP 1 MTAP deleted IC50): < 100 nM; MTAP intact/deleted ratio ([4]; IC50 ratio HAP1 MTAP-intact / HAP1 MTAP-deleted): A (an IC50 ratio greater than or equal to 10 fold); IC50 ([5]; HAP1, viability, HAP1 MTAP-deleted cell line, read-out: HAP1 MTAP deleted viability): < 1000 nM
Cc1cc(NC(=O)C(=O)N2C[C@@H](C)CC[C@@H]2c2ccc3c(c2)CC(=O)N3)cnc1N (single isomer, unassigned) [Compound 678] | < 100 | < 100 | < 1000 | –
COc1ncc(NC(=O)C(=O)N2C[C@H](C)CC[C@H]2c2ccc3sc(C)nc3c2)cc1C(N)=O (single isomer, unassigned) [Compound 808] | – | – | – | IC50 [3, 6]: > 1000 nM; IC50 [4, 10]: > 1000 nM; IC50 ([5]; HAP1, viability assay, HAP1 MTAP-deleted, read-out: HAP1 MTAP deleted viability): > 10000 nM
C[C@H]1CC[C@H](c2ccc3cnccc3c2)N(C(=O)C(=O)Nc2cncc(C(N)=O)c2)C1 (single isomer, unassigned) [Compound 885] | > 1000 | > 1000 | > 10000 | –
C[C@@H]1CC[C@@H](c2ccc3cnccc3c2)N(C(=O)C(=O)Nc2cncc(C(N)=O)c2)C1 (single isomer, unassigned) [Compound 892] | > 1000 | < 100 | < 1000 | –
Cc1cc(NC(=O)C(=O)N2C[C@H](C)CC[C@H]2c2ccc3cnccc3c2)cnc1N (single isomer, unassigned) [Compound 1000] | 100 to 1000 | < 100 | < 1000 | –
Cc1cc(NC(=O)C(=O)N2C[C@@H](C)CC[C@@H]2c2ccc3cnccc3c2)cnc1N (single isomer, unassigned) [Compound 1002] | > 1000 | 100 to 1000 | > 10000 | –
Cc1cc(NC(=O)C(=O)N2C[C@H](C)CC[C@H]2c2ccc3sc(CN(C)C)nc3c2)cnc1N (single isomer, unassigned) [Compound 1122] | < 100 | < 100 | < 1000 | –
COc1ncc(NC(=O)C(=O)N2C[C@@H](C)CC[C@@H]2c2ccc3sc(C4CCN(C)CC4)nc3c2)cc1C(N)=O (single isomer, unassigned) [Compound 1126] | < 100 | < 100 | < 1000 | –
C[C@@H]1CC[C@@H](c2ccc3sc(C4CCN(C)CC4)nc3c2)N(C(=O)C(=O)Nc2cnc(N)c(C3CC3)c2)C1 (single isomer, unassigned) [Compound 1201] | > 1000 | 100 to 1000 | < 1000 | –
CO[C@H]1C[C@H](c2ccc3scnc3c2)N(C(=O)C(=O)Nc2cncc(C(N)=O)c2)C[C@H]1C (single isomer, unassigned) [Compound 1221] | – | – | – | IC50 [1]: > 500 nM; IC50 [2]: 50 to 500 nM; IC50 [3, 6]: > 1000 nM; IC50 [4, 10]: 100 to 1000 nM; MTAP intact/deleted ratio ([4]; IC50 ratio HAP1 MTAP-intact vs HAP1 MTAP-deleted): A (an IC50 ratio greater than or equal to 10 fold); IC50 ([5]; HAP1, viability assay, MTAP-deleted cell line, read-out: HAP1 MTAP deleted viability): 1000 to 10000 nM
C[C@H]1CC[C@H](c2ccc3sc(C4CCN(C)CC4)nc3c2)N(C(=O)C(=O)Nc2cnc(N)c(C3CC3)c2)C1 (single isomer, unassigned) [Compound 1222] | < 100 | < 100 | < 1000 | –
Cc1cc(NC(=O)C(=O)N2C[C@@H](C)CC[C@@H]2c2ccc3sc(CCN(C)C)nc3c2)cnc1N (single isomer, unassigned) [Compound 1279] | < 100 | < 100 | < 1000 | –
Cc1cc(NC(=O)C(=O)N2C[C@H](C)CC[C@H]2c2ccc3sc(C4CCN(C)CC4)nc3c2)cnc1N (single isomer, unassigned) [Compound 1293] | 100 to 1000 | < 100 | < 1000 | –
